Source: US20110257245A1, “METHODS OF IDENTIFYING REGULATORS OF CELLULAR PROTEOSTASIS” (The Board of Trustees of the Leland Stanford Junior …, priority 2010, published 2011)
Where a SMILES comes first, the peptide text is derived from it. The star is where a group is joined. Cbz = O=C(OCc1ccccc1)*

B1: [35S]PY-Sic1(Ubn): [35S]-labeled polyubiquitinated PY-Sic1 model substrate of the 26S proteasome (protein, UniProt P38634 1-284, looked up)
Protein SIC1: MTPSTPPRSRGTRYLAQPSGNTSSSALMQGQKTPQKPSQNLVPVTPSTTKSFKNAPLLAPPNSNMGMTSPFNGLTSPQRSPFPKSSVKRTLFQFESHDNGTVREEQEPLGRVNRILFPTQQNVDIDAAEEEEEGEVLLPPSRPTSARQLHLSLERDEFDQTHRKKIIKDVPGTPSDKVITFELAKNWNNNSPKNDARSQESEDEEDIIINPVRVGKNPFASDELVTQEIRNERKRAMLRENPDIEDVITYVNKKGEVVEKRRLTDEEKRRFKPKALFQSRDQEH
modifications: 35S label, PY motif, polyubiquitinated
notes: [35S]-labeled polyubiquitinated PY-Sic1 model substrate of the 26S proteasome

What was measured:
[1] = tested on: 26S proteasomes; test: In vitro Sic1 degradation assay; format: biochemical, rat
Method: The substrate degradation reaction was carried out at room temperature in 50-100 μL total volume containing 10 nM 26S, 1×ATP buffer, and 100 nM [35S]Sic1-Ubn. 5 μL reaction aliquots were removed at various time points and separated on a 4-20% gradient gel followed by autoradiography. Alternately, aliquots were added to 10% trichloroacetic acid (TCA) or ddH20 on ice for 30 min and 2 mg/mL bovine serum albumin as a carrier. Samples were centrifuged at 12,000×g for 30 min, and the supernatant removed for analysis by scintillation spectrometry. The percent of degradation was determined by dividing the measured counts after TCA precipitation by the total counts measured in ddH20. To assess the ubiquitin-dependence of degradation, [35S]Sic1-Ubn was pretreated with 10 nM Usp2 cc (Baker et al., 2005) for 30 min at 37° C. prior to the addition of proteasomes. To inhibit substrate degradation, 26S proteasomes were pretreated with 10 μM MG132 (Biomol) prior to the addition of substrate. The initial rate of degradation was determined by least-squares linear regression analyses of 5, 10, and 20 min time points using Sigmaplot. The dependence of the initial rate of degradation on substrate concentration was plotted, and the data fit to the Michaelis-Menten equation using Sigmaplot.

[2] = tested on: HEK293 cells stably expressing GFP-CL1, UbG76V-GFP, Ub-R-GFP or cODC-GFP; test: Fluorescent proteasome reporters challenged with proteasome inhibitor; format: cell-based; settings: 10 μM MG-132, all four reporters
Method: FIG. 6 depicts features of fluorescent proteasome reporters, used in embodiments of the present invention. Untransfected HEK293 cells, and cells stably expressing GFP-CL1, UbG76V-GFP, Ub-R-GFP or cODC-GFP were treated with 10 μM MG-132 and at the times indicated, mean GFP fluorescence was analyzed by flow cytometry (Panel A) or by fluorescence microscopy of living cells (Panel B). […] Cells were incubated overnight at the permissive temperature 32° C. (black bars), at 32° C. in the presence of 10 μM MG-132 (white bars) or at the non-permissive temperature 40° C. (grey bars). Mean GFP fluorescence was analyzed by flow cytometry, and plotted as relative fluorescence change. […] HEK293 cells stably expressing UbG76V-GFP or GFP were transiently transfected with httchFP, and analyzed as described in FIG. 1B. […] Htt(Q91)-chFP-specific GFP fluorescence is plotted for GFP (♦) and UbG76V-GFP expressing cells (▪).
Unless indicated, cells were harvested 72 hrs after transfection and analyzed with a Becton-Dickinson LSRII flow cytometer with a 488 nm and a 535 nm Laser (BD, Franklin Lakes, N.J.). To ensure a sufficient number of cells with elevated levels of the transfected protein, over 200,000 cells were analyzed per condition in a typical experiment. […] Raw flow cytometry data were analyzed using FlowJo (version 8.8.6, Tree Star) software. […]

Molecule | effect on degradation of PY-Sic1(Ubn) by purified proteasomes ([1]; 10 μM MG132, 10 nM 26S, 100 nM substrate) | fluorescence of GFP-degron proteasome reporters [2] | Km ([1]; 10 nM 26S proteasomes, read-out: Km of [35S]PY-Sic1(Ubn) degradation (Michaelis-Menten analysis))
CC(C)C[C@@H](C=O)NC(=O)[C@H](CC(C)C)NC(=O)[C@H](CC(C)C)NC(=O)OCc1ccccc1 [MG132] (Cbz-Leu-Leu-Leu-aldehyde) | inhibited | diffuse time-dependent increases in cytoplasmic fluorescence | 
B1 |  |  | 0.0469 ± 0.0035 µM
